Data on 7 compounds can be found in patent US20260138961A1, “MODULATORS OF MITOCHONDRIAL DNA REPLICATION” (Pretzel Therapeutics, Inc., priority 2022, published 2026).

For this assay, the target named is T1, POLγA:Y955C (Homo sapiens, UniProt P54098, Y955C).
T1 sequence (P54098 1-1239 Y955C): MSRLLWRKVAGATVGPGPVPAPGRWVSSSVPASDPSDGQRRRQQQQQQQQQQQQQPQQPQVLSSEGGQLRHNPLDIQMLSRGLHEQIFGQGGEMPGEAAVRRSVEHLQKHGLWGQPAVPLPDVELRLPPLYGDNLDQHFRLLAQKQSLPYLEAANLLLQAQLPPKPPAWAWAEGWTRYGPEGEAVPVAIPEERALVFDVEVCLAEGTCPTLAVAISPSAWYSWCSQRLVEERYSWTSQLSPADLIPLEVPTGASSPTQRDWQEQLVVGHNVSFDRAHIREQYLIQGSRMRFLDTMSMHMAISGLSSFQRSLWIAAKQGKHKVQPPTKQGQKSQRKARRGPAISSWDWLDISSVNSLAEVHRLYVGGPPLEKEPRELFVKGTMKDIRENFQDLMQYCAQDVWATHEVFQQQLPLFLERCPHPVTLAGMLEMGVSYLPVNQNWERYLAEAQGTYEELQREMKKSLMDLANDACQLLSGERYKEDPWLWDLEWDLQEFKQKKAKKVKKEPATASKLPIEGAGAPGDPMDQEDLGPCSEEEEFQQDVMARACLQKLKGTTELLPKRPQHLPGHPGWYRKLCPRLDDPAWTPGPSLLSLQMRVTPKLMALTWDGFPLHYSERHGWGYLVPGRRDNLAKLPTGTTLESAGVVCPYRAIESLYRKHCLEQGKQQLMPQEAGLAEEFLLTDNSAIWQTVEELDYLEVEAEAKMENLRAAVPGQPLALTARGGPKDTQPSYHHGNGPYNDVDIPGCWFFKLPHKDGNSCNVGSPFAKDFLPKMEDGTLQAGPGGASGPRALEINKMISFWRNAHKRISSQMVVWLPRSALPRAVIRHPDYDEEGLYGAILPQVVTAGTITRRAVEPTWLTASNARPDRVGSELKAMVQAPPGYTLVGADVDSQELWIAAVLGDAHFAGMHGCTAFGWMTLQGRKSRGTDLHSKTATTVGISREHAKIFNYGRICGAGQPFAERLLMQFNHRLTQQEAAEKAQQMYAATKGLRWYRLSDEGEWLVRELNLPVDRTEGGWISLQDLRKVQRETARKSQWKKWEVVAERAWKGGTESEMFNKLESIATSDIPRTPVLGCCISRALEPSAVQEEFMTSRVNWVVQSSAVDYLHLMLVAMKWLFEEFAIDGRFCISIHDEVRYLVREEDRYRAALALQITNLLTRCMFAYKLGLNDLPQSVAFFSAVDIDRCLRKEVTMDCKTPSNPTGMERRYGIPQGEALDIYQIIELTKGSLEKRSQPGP
T1 sequence (Q9UHN1 1-485 partner): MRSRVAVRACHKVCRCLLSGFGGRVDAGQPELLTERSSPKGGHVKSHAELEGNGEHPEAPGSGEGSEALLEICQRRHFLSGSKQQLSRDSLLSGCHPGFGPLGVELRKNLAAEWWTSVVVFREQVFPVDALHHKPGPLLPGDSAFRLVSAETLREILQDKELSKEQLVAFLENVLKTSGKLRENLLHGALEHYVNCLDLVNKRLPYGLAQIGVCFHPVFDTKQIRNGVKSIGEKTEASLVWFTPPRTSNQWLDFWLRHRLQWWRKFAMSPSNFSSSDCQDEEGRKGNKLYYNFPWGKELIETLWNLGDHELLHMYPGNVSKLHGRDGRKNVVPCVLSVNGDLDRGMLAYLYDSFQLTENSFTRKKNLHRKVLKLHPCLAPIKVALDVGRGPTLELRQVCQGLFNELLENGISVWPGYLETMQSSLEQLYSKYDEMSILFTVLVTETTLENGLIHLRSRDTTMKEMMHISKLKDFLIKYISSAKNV
Briefly: DNA polymerization assay, POLγA:Y955C mutant. Format: biochemical. To be noted: stimulation of polymerase activity, primed M13mp18 ssDNA, 37° C. 2 hours. The protocol: DNA Polymerization Assay to Monitor Effects on Human Wildtype POLγ and Four Disease-Causing Mutant Variants of Human POLγ.
The ability of small molecules to stimulate the polymerase activity of POLγ was analyzed in a quantitative fluorescence SYBR Green I assay with fluorescence intensity (FI) readout.
In the presence of dNTPs, wild type human POLγ and mutant derivatives thereof were incubated with single-stranded, circular M13mp18 ssDNA hybridized to a short DNA oligonucleotide that functions as a primer for initiation of DNA synthesis. POLγ and mutant derivatives thereof will extend the primer and use the M13mp18 molecule as a template to synthesize long stretches of double-stranded DNA. SYBR Green I, which is a double-stranded DNA-binding dye, was used to quantify formation of double-stranded DNA in the reaction. When bound to double-stranded DNA, SYBR Green I fluorescence increases by up to 100-fold.
The assay was performed in the 384-well plate format. Upon addition of compounds, changes in double-stranded DNA synthesis activity can be monitored by following effects on fluorescent intensity.
The reactions also contained the accessory POLγB subunit, and the human mitochondrial single-stranded DNA binding protein (mtSSB).
The DNA template mixture used in the assay contained 0.5 nM primed M13 mp18 ssDNA, 400 nM mtSSB, 0.1 mM Tris-HCl (pH 8.0), 0.1 mM dNTP, 10 mM MgCl2, 0.1 mg/mL BSA, 1 mM TCEP solution, and 0.02% Triton X-100. The DNA template mixture for the wild type protein contained either 100 μM dNTP, 1 μM dNTP, or 0.1 μM dNTP, designated in Table 2 as 100 μM, 1 μM, and 0.1 μM, respectfully.
Microplates with compounds (0.1 μL in each well) to be tested in the assay were prepared from 10 mM compound stocks in 100% DMSO, and equal amounts of DMSO without any compound were added to positive and negative control wells.
The protein mixture was dispensed (5 μL into each well) into compound plates and incubated at 37° C. for 15 minutes. After incubation, 5 μL of the DNA template mixture was dispensed into each well. The plates were then incubated at 37° C. for 2 hours.
During incubation, a combined stop buffer and detection reagent solution was prepared. The buffer contained 25 mM EDTA (pH 8.0), 0.02% Triton X-100, and SYBR Green I [Invitrogen] diluted 10,000× (for fluorescent readout). EDTA will stop the enzymatic reaction by chelating magnesium ions.
For orientation: AC50 means the concentration at which the activity in the assay is half-maximal. `Cc1cc(S(=O)(=O)Nc2ccc3ccn(C)c3c2)c(C)cc1Cl` [Example 72, 4-chloro-2,5-dimethyl-N-(1-methyl-1H-indol-6-yl)benzenesulfonamide] registered a concentration at half-maximal activity (AC50) of 6000 nM.
`Cc1nc2ccc(NS(=O)(=O)c3cc(C)c(Cl)cc3C)cc2s1` [Example 73, 4-chloro-2,5-dimethyl-N-(2-methylbenzo[d]thiazol-6-yl)benzenesulfonamide] showed an AC50 of 800 nM.
The result for `Cc1cc(S(=O)(=O)Nc2cccc(-c3ncc(C4CC4)s3)c2)c(C)cc1Cl` [Example 76, 4-chloro-N-(3-(5-cyclopropylthiazol-2-yl)phenyl)-2,5-dimethylbenzenesulfonamide] reads 2000 nM; that for `Cc1csc(-c2ccccc2NS(=O)(=O)c2cc(C)c(Cl)cc2C)n1` [Example 80, 4-chloro-2,5-dimethyl-N-(2-(4-methylthiazol-2-yl)phenyl)benzenesulfonamide], over 100000 nM.
Compound `Cc1cc(S(=O)(=O)Nc2csc(-c3ccccc3)n2)c(C)cc1Cl` [Example 81, 4-chloro-2,5-dimethyl-N-(2-phenylthiazol-4-yl)benzenesulfonamide] had a concentration at half-maximal activity (AC50) of 200 nM.
As to `Cc1cc(S(=O)(=O)Nc2cccc(-c3ncc(CN(C)C)s3)c2)c(C)cc1Cl` [Example 87, 4-chloro-N-(3-(5-((dimethylamino)methyl)thiazol-2-yl)phenyl)-2,5-dimethylbenzenesulfonamide], the half-maximal activity concentration (AC50) is 6000 nM.
Compound `Cc1cc(S(=O)(=O)Nc2cccc(-c3ncc(CO)s3)c2)c(C)cc1Cl` [Example 89, 4-chloro-N-(3-(5-(hydroxymethyl)thiazol-2-yl)phenyl)-2,5-dimethylbenzenesulfonamide] had an AC50 of 100 nM.
